Assay results published in patent publication US11207310B2 (PRILENIA NEUROTHERAPEUTICS LTD., priority 2016, dated 2021).
Where two headings read alike, the source gives them in different places.

Experiments:
patients with HD [1] = conditions: for Δ to placebo: Total Maximal Chorea (TMC): HD1 patients; for Change from baseline in UHDRS TMS Chorea, Δ to placebo / Change from baseline in UHDRS TMS Chorea, Wk 26 Δ to placebo: Week 26; for Change from baseline in UHDRS TMS Chorea, Δ to placebo: ALL; for Change from baseline in UHDRS TMS Chorea, Wk 26 Δ to placebo: Stage 1 BL TFC 11-13
From the text: In the UHDRS, maximal chorea was scored from 0 (absent) to 4 (marked/prolonged) on each of the following items: face, mouth, trunk, right upper extremity, left upper extremity, right lower extremity, and left lower extremity. Maximal chorea is the sum of all scores.

patients with HD [2] = tested on: patients with HD
Experimental: The study also compared data from all patients to those obtained in HD subpopulations.
The primary efficacy variable and endpoint for this study was change from baseline in the UHDRS TMS (defined as the sum of all UHDRS motor domains ratings) at Week 26 or Week 52. The primary measure of motor impairment is the UHDRS motor assessment section, which was administered by a trained examiner. The first part of the motor assessment consisted of five TMS subscores, provided below. The sum total of all the 31 items is referred to as the Total Motor Score (TMS). The secondary efficacy variable and endpoint was change from baseline in the mPPT at Week 26 or Week 52.
It is a research tool which has been developed to provide a uniform assessment of the clinical features and course of HD. The TMS component of UHDRS comprises 31 assessments from the 15 items of the UHDRS, with each assessment rated on a 5-point scale from 0 (normal) to 4 (maximally abnormal).
The change from baseline in UHDRS-TMS was analyzed using a Repeated Measures model (SAS® MIXED procedure with REPEATED sub-command). The model includes the following fixed effects: categorical week in study by treatment interaction, center, neuroleptic use or no use, and baseline UHDRS-TMS score. The unstructured covariance matrix for repeated observations within patients was used.

patients with HD [3] = conditions: for Δ to placebo: Q-Motor Tap-Speed-Inter-Onset-interval-MN-Hand, change from baseline: week 52
From the text: Motor deficits can be objectively assessed using different Q-Motor assessments. All Q-Motor assessments are based on the application of precalibrated and temperature controlled force transducers and 3-dimensional position sensors with very high sensitivity and test-retest reliability across sessions and sites in a multicenter clinical study. Q-Motor measures thus aim to reduce the limited sensitivity of categorical clinical rating scales, the intra- and inter-rater variability, and placebo effects observed in scales such as UHDRS-TMS. In addition, Q-Motor assessments allow for the objective monitoring of unintended motor side-effects in clinical studies. Thus, Q-Motor is an objective, reliable, and sensitive measure of motor function that is free of rater bias and limits placebo effect influence.
The patient placed their hand on a hand rest with their index finger positioned above a force-transducer. Recordings start after practice runs. The patient is instructed to finger tap as fast as possible between 2 auditory cues. The beginning of a tap is defined as a rise of the force by 0.05 N above maximal baseline level. The tap ends when it drops to 0.05 N before the maximal baseline level is reached again. The duration and variability of tap durations (TD), inter onset intervals (IOI), inter peak intervals (IPI), and inter tap intervals (ITI) are the exploratory outcome measures for speeded tapping. In addition, variability of peak tapping forces (TF) is calculated as coefficient of variation, and the tapping frequency (Freq), i.e., the number of taps between the onsets of the first and the last tap divided by the time in between, is determined. Five trials of 10 seconds duration are performed with each hand.

patients with HD [4] = conditions: Week 26
Experimental: The HD-QoL is a standardized instrument for measuring health-related quality of life. […] It is a validated disease-specific measure designed for HD, and can provide a summary score of overall health-related quality of life, as well as scores on several discrete scales. […] HD-QoL can be used across the full spectrum of HD.
The change from baseline in HD-QoL and in EQSD-5L was analyzed using an Analysis of Covariance (ANCOVA) Model. The model includes the following fixed effects: treatment, center, neuroleptic use or no use, and baseline HD-QoL or EQSD-5L score. The last observation carried forward (LOCF) was applied for these endpoints for early terminated subjects.

patients with HD [5] = conditions: 45 mg bid; weeks 12 and 26 (Landwehrmeyer 2011); cited from earlier work

Compound: CCCN1CCC(c2cccc(S(C)(=O)=O)c2)CC1 [pridopidine, 4-[3-(methylsulfonyl)phenyl]-1-propyl-piperidine]
- Δ to placebo: Total Maximal Chorea (TMC) (patients with HD [1]; 45 mg bid, week 26): −1.4
- Δ to placebo: Total Maximal Chorea (TMC) (patients with HD [1]; 45 mg bid, week 52): −0.93
- Change from baseline in UHDRS TMS Chorea, Δ to placebo (patients with HD [1]; 45 mg bid): 0.92
- Change from baseline in UHDRS TMS Chorea, Wk 26 Δ to placebo (patients with HD [1]; 45 mg bid): −1.4
- Δ to placebo: Total Maximal Chorea (TMC) (patients with HD [1]; 67.5 mg bid, week 26): −2.07
- Δ to placebo: Total Maximal Chorea (TMC) (patients with HD [1]; 67.5 mg bid, week 52): −0.13
- Change from baseline in UHDRS TMS Chorea, Δ to placebo (patients with HD [1]; 67.5 mg bid): 0.81
- Change from baseline in UHDRS TMS Chorea, Wk 26 Δ to placebo (patients with HD [1]; 67.5 mg bid): −2.07
- Δ to placebo: Total Maximal Chorea (TMC) (patients with HD [1]; 90 mg bid, week 26): −2.52
- Δ to placebo: Total Maximal Chorea (TMC) (patients with HD [1]; 90 mg bid, week 52): −2.43
- Change from baseline in UHDRS TMS Chorea, Δ to placebo (patients with HD [1]; 90 mg bid): 0.36
- Change from baseline in UHDRS TMS Chorea, Wk 26 Δ to placebo (patients with HD [1]; 90 mg bid): −2.52
- Δ to placebo: Total Maximal Chorea (TMC) (patients with HD [1]; 112.5 mg bid, week 26): −1.08
- Δ to placebo: Total Maximal Chorea (TMC) (patients with HD [1]; 112.5 mg bid, week 52): 0.88
- Change from baseline in UHDRS TMS Chorea, Δ to placebo (patients with HD [1]; 112.5 mg bid): 1.05
- Change from baseline in UHDRS TMS Chorea, Wk 26 Δ to placebo (patients with HD [1]; 112.5 mg bid): −1.08
- TMS change from baseline versus historical placebo in HART and MermaiHD (patients with HD [2]; 45 mg bid (FIG. 5a)): significant
- Change from baseline in TMS plotted over time (patients with HD [2]; 45 mg bid, HD1 patients, after 52 weeks (FIG. 45b)): shows improvement in TMS score
- Change from baseline in UHDRS TMS, Δ to placebo (patients with HD [2]; 45 mg bid, Week 26, ALL): 1.42
- Change from baseline in UHDRS TMS, Δ to placebo (patients with HD [2]; 45 mg bid, Week 26, Stage 1 BL TFC 11-13): −4.47
- Change from baseline in UHDRS TMS, Δ to placebo (patients with HD [2]; 45 mg bid, Week 52, ALL): 0.59
- Change from baseline in UHDRS TMS, Wk52 Δ to placebo (patients with HD [2]; 45 mg bid, Week 52, Stage 1 BL TFC 11-13): −5.32
- Change from baseline in UHDRS TMS, Δ to placebo (patients with HD [2]; 67.5 mg bid, Week 26, ALL): 1.71
- Change from baseline in UHDRS TMS, Δ to placebo (patients with HD [2]; 67.5 mg bid, Week 26, Stage 1 BL TFC 11-13): −3
- Change from baseline in UHDRS TMS, Δ to placebo (patients with HD [2]; 67.5 mg bid, Week 52, ALL): 2.55
- Change from baseline in UHDRS TMS, Wk52 Δ to placebo (patients with HD [2]; 67.5 mg bid, Week 52, Stage 1 BL TFC 11-13): −0.84
- TMS change from baseline versus historical placebo in HART and MermaiHD (patients with HD [2]; 90 mg bid (FIG. 5a)): significant
- Change from baseline in UHDRS TMS, Δ to placebo (patients with HD [2]; 90 mg bid, Week 26, ALL): 0.67
- UHDRS TMS score at week 26 compared to baseline (patients with HD [2]; 90 mg bid, Week 26, BL TFC 11-13 (HD1), read from FIG. 8b): about −8
- Change from baseline in UHDRS TMS, Δ to placebo (patients with HD [2]; 90 mg bid, Week 26, Stage 1 BL TFC 11-13): −6.15
- Change from baseline in UHDRS TMS, Δ to placebo (patients with HD [2]; 90 mg bid, Week 52, ALL): 1.78
- Change from baseline in UHDRS TMS, Wk52 Δ to placebo (patients with HD [2]; 90 mg bid, Week 52, Stage 1 BL TFC 11-13): −7.1
- Total Motor Score (TMS) Change from Baseline (patients with HD [2]; 90 mg bid, weeks 4-26 (FIG. 3)): largest treatment effect
- Change from baseline in UHDRS TMS, Δ to placebo (patients with HD [2]; 112.5 mg bid, Week 26, ALL): 2.1
- Change from baseline in UHDRS TMS, Δ to placebo (patients with HD [2]; 112.5 mg bid, Week 26, Stage 1 BL TFC 11-13): −4.79
- Change from baseline in UHDRS TMS, Δ to placebo (patients with HD [2]; 112.5 mg bid, Week 52, ALL): 2.71
- Change from baseline in UHDRS TMS, Wk52 Δ to placebo (patients with HD [2]; 112.5 mg bid, Week 52, Stage 1 BL TFC 11-13): −0.92
- primary endpoint: change in TMS from baseline to week 26 compared with placebo (patients with HD [2]; PRIDE-HD, 45 mg to 112.5 mg bid): did not meet the primary endpoint
- TMS in the PRIDE-HD study (patients with HD [2]; all doses, week 26): showed improvement at all doses at week 26, but did not reach statistical significance
- Δ to placebo: Q-Motor Tap-Speed-Inter-Onset-interval-MN-Hand, change from baseline (patients with HD [3]; 45 mg bid, FAS): -0.0402 s
- Δ to placebo: Q-Motor Tap-Speed-Inter-Onset-interval-MN-Hand, change from baseline (patients with HD [3]; 45 mg bid, HD1 and HD2 patients): -0.0351 s
- Δ to placebo: Q-Motor Tap-Speed-Inter-Onset-interval-MN-Hand, change from baseline (patients with HD [3]; 67.5 mg bid, FAS): 0.0152 s
- Δ to placebo: Q-Motor Tap-Speed-Inter-Onset-interval-MN-Hand, change from baseline (patients with HD [3]; 67.5 mg bid, HD1 and HD2 patients): -0.0464 s
- Δ to placebo: Q-Motor Tap-Speed-Inter-Onset-interval-MN-Hand, change from baseline (patients with HD [3]; 90 mg bid, FAS): -0.0064 s
- Δ to placebo: Q-Motor Tap-Speed-Inter-Onset-interval-MN-Hand, change from baseline (patients with HD [3]; 90 mg bid, HD1 and HD2 patients): -0.0291 s
- Q-Motor Tap-Speed-Frequency (patients with HD [3]; 90 mg bid, weeks 4, 12, 26 (FIG. 38)): consistent improvement from baseline
- Q-Motor Tap Speed Inter Onset Interval (IOI) (patients with HD [3]; 90 mg bid, weeks 4, 12, 26 (FIG. 39a)): consistent and significant improvement from baseline
- Δ to placebo: Q-Motor Tap-Speed-Inter-Onset-interval-MN-Hand, change from baseline (patients with HD [3]; 112.5 mg bid, FAS): -0.017 s
- Δ to placebo: Q-Motor Tap-Speed-Inter-Onset-interval-MN-Hand, change from baseline (patients with HD [3]; 112.5 mg bid, HD1 and HD2 patients): -0.022 s
- Change from baseline in HD-QoL Participant Total Score, Δ to placebo (patients with HD [4]; 45 mg bid, ALL): 1.91
- HD-QoL Participant Total Score, change from baseline, Δ to placebo (patients with HD [4]; 45 mg bid, BL TFC<7, p value 0.6958): 4.87
- HD-QoL Participant Total Score, change from baseline, Δ to placebo (patients with HD [4]; 45 mg bid, BL TFC≥7, p value 0.9144): 0.51
- Change from baseline in HD-QoL Participant Total Score, Δ to placebo (patients with HD [4]; 45 mg bid, Stage 2 BL TFC 7-10): 3.22
- Change from baseline in HD-QoL Participant Total Score, Δ to placebo (patients with HD [4]; 67.5 mg bid, ALL): 8.7
- HD-QoL Participant Total Score, change from baseline, Δ to placebo (patients with HD [4]; 67.5 mg bid, BL TFC<7, p value 0.9304): 1
- HD-QoL Participant Total Score, change from baseline, Δ to placebo (patients with HD [4]; 67.5 mg bid, BL TFC≥7, p value 0.0284): 10.63
- Change from baseline in HD-QoL Participant Total Score, Δ to placebo (patients with HD [4]; 67.5 mg bid, Stage 2 BL TFC 7-10): 16.33
- Change from baseline in HD-QoL Participant Total Score, Δ to placebo (patients with HD [4]; 90 mg bid, ALL): 6.95
- HD-QoL Participant Total Score, change from baseline, Δ to placebo (patients with HD [4]; 90 mg bid, BL TFC<7, p value 0.817): 2.61
- HD-QoL Participant Total Score, change from baseline, Δ to placebo (patients with HD [4]; 90 mg bid, BL TFC≥7, p value 0.2834): 5.17
- Change from baseline in HD-QoL Participant Total Score, Δ to placebo (patients with HD [4]; 90 mg bid, Stage 2 BL TFC 7-10): 10.64
- Change from baseline in HD-QoL Participant Total Score, Δ to placebo (patients with HD [4]; 112.5 mg bid, ALL): −1.36
- HD-QoL Participant Total Score, change from baseline, Δ to placebo (patients with HD [4]; 112.5 mg bid, BL TFC<7, p value 0.7016): −4.33
- HD-QoL Participant Total Score, change from baseline, Δ to placebo (patients with HD [4]; 112.5 mg bid, BL TFC≥7, p value 0.8365): −0.99
- Change from baseline in HD-QoL Participant Total Score, Δ to placebo (patients with HD [4]; 112.5 mg bid, Stage 2 BL TFC 7-10): 4.29
- TMS compared with placebo, pooled analysis of HART and MermaiHD (patients with HD [5]): significantly improved
